Each structure is given as a SMILES string. Like-named read-outs stand apart in the source and are kept apart here.

34 compounds from patent US10660877B2 (BRISTOL-MYERS SQUIBB COMPANY, priority 2016, dated 2020) can be followed below.

The target of assay [1] is human TLR7 (Homo sapiens (Human), UniProt Q9NYK1). The experiment in a line: TLR7 inhibition reporter assay (HEK-Blue cells, SEAP reporter, gardiquimod stimulation). In kind it is cell-based.
For assay [2], the target named is human TLR9 (Homo sapiens (Human), UniProt Q9NR96). The experiment in a line: TLR9 inhibition reporter assay (HEK-Blue cells, SEAP reporter, ODN2006 stimulation).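 Note: compounds tested over 0.05 nM to 50 µM, 22 h incubation, inhibition taken as SEAP signal drop from agonist plus DMSO wells toward a known inhibitor control.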
Sequence of human TLR9 (Q9NR96 26-1032): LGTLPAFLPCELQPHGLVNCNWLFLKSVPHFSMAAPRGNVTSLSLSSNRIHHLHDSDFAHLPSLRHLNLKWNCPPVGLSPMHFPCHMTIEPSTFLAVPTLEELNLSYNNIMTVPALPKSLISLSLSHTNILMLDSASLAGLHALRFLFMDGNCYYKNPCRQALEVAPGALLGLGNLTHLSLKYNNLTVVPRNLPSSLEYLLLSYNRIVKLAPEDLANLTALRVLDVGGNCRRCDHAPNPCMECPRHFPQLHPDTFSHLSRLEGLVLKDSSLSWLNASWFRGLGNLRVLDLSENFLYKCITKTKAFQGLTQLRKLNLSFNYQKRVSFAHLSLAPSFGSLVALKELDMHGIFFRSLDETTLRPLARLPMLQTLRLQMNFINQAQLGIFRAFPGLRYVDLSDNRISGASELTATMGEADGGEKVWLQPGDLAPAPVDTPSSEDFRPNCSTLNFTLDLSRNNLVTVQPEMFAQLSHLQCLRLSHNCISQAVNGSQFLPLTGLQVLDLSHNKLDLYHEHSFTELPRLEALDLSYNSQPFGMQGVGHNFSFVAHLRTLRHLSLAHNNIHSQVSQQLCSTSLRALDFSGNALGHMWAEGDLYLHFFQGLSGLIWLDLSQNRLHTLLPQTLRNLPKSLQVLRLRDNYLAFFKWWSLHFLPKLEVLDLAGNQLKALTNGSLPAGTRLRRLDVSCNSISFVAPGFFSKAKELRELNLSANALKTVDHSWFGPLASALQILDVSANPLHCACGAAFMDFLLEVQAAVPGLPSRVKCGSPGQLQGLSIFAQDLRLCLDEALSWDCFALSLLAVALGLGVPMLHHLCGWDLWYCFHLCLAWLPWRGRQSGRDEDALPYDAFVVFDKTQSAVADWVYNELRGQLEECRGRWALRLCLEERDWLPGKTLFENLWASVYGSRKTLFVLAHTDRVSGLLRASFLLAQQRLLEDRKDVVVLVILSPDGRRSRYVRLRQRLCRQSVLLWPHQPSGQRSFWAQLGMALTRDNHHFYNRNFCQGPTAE
The mark [3] stands for this setting: HEK-Blue cells overexpressing human TLR7, gardiquimod 7.5 μM.
Setting [4] is: read-out: TLR9 IC50, HEK-Blue cells overexpressing human TLR9, ODN2006 5 nM.
Where [5] appears, read: HEK-Blue cells, gardiquimod 7.5 μM.
Where [6] appears, read: read-out: TLR9 IC50, HEK-Blue cells, ODN2006 5 nM.

Sequence of human TLR7 (Q9NYK1 27-1049): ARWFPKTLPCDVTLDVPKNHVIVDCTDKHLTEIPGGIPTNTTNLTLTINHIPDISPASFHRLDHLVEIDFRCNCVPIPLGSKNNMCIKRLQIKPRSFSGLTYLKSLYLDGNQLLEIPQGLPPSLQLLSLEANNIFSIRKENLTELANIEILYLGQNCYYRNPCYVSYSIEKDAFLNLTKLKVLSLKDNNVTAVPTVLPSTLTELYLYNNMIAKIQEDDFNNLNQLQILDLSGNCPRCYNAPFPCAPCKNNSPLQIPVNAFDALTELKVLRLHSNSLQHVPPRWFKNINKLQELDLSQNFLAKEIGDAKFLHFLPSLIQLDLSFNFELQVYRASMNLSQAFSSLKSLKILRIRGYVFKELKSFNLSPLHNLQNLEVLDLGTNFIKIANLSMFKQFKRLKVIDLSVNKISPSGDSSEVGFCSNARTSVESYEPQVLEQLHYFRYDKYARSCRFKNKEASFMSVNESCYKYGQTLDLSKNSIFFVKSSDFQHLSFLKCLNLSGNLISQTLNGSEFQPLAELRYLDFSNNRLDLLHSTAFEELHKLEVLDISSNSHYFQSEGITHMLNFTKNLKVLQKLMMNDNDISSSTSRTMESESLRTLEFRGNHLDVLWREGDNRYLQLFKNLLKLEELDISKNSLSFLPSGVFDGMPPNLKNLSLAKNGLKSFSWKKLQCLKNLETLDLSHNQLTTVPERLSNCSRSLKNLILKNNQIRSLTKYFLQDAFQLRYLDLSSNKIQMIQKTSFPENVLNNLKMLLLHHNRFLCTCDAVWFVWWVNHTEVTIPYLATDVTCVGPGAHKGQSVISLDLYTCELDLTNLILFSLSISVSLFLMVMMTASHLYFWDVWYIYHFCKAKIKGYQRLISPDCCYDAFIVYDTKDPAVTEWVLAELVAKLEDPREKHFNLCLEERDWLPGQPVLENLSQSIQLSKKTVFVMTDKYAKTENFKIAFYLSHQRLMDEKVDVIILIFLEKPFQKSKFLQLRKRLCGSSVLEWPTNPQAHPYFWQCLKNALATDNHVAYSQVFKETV

In the case of `CNCCN1CCC(c2ccc3[nH]c(-c4cc(OCCOC)ncc4F)c(C)c3c2)CC1` [Example 749, 2-(4-(2-(5-fluoro-2-(2-methoxyethoxy)pyridin-4-yl)-3-methyl-1H-indol-5-yl)piperidin-1-yl)-N-methylethan-1-amine], the IC50 in assay [1] (setting [3]) worked out at 4830 nM; in assay [2] (setting [4]) it was 640 nM.

Consider `CNCCN1CCC(c2ccc3[nH]c(-c4ccnc(F)c4)c(C)c3c2)CC1` [Example 750, 2-(4-(2-(2-fluoropyridin-4-yl)-3-methyl-1H-indol-5-yl)piperidin-1-yl)-N-methylethan-1-amine], for which the figures for the IC50 in assay [1] (setting [3]) and in assay [2] (setting [4]) were 332 nM and 270 nM, respectively.

In the case of `CC(C)c1c(-c2ccnc(C(F)(F)F)c2)[nH]c2ccc(C3CCNCC3)cc12` [Example 6, 3-isopropyl-5-(piperidin-4-yl)-2-(2-(trifluoromethyl)pyridin-4-yl)-1H-indole], the IC50 in assay [1] (setting [3]) stood at 28.2 nM; in assay [2] (setting [4]) it was 1480 nM. As to `COc1cc(-c2[nH]c3ccc(C4CCN(C5CCN(C(C)C)CC5)CC4)cc3c2C)ccn1` [Example 840, 5-(1′-isopropyl-[1,4′-bipiperidin]-4-yl)-2-(2-methoxypyridin-4-yl)-3-methyl-1H-indole], the IC50 in assay [1] (setting [5]) was 466 nM; in assay [2] (setting [6]) it was 379 nM. With `Cc1cc(-c2[nH]c3cc(C)c(C4CCNCC4)cc3c2C(C)C)ccn1` [Example 75, 3-isopropyl-6-methyl-2-(2-methylpyridin-4-yl)-5-(piperidin-4-yl)-1H-indole], the IC50 is 5 nM in assay [1] (setting [3]) and 180 nM in assay [2] (setting [4]).

Take `CNCCN1CCC(c2ccc3[nH]c(-c4ccnc(OC)c4)c(C)c3c2)CC1` [Example 777, 2-(4-(2-(2-methoxypyridin-4-yl)-3-methyl-1H-indol-5-yl)piperidin-1-yl)-N-methylethan-1-amine]: in assay [1] (setting [3]), the IC50 stood at 515 nM. `COc1cc(-c2[nH]c3ccc(C4CCNCC4)cc3c2C(C)C)ccn1` [Example 485, 3-isopropyl-2-(2-methoxypyridin-4-yl)-5-(piperidin-4-yl)-1H-indole]: the IC50 in assay [1] (setting [3]) was determined as 11.8 nM; in assay [2] (setting [4]), 3040 nM.

As to `CCc1c(-c2ccnc(OC)c2)[nH]c2ccc(C3CCN(C4CCN(C5CC5)CC4)CC3)cc12` [Example 788, 5-(1′-cyclopropyl-[1,4′-bipiperidin]-4-yl)-3-ethyl-2-(2-methoxypyridin-4-yl)-1H-indole], the IC50 in assay [1] (setting [3]) stood at 356 nM; in assay [2] (setting [4]) it was 611 nM.

For the compound `CNCCN1CCC(c2ccc3[nH]c(-c4ccncc4)c(C)c3c2)CC1` [Example 776, N-methyl-2-(4-(3-methyl-2-(pyridin-4-yl)-1H-indol-5-yl)piperidin-1-yl)ethan-1-amine], in assay [1] (setting [3]), the IC50 was 545 nM.

Regarding `CCc1c(-c2ccnc(OC(F)F)c2)[nH]c2ccc(C3CCN(C4CCN(CC(C)C)CC4)CC3)cc12` [Example 774, 2-(2-(difluoromethoxy)pyridin-4-yl)-3-ethyl-5-(1′-isobutyl-[1,4′-bipiperidin]-4-yl)-1H-indole], the values for the IC50 in assay [1] (setting [3]) and in assay [2] (setting [4]) were 3700 nM and 663 nM, respectively. On to `Cc1nc(C)c(C)c(-c2[nH]c3ccc(C4CCNCC4)cc3c2C(C)C)c1C` [Example 43, 3-isopropyl-5-(piperidin-4-yl)-2-(2,3,5,6-tetramethylpyridin-4-yl)-1H-indole], for which the IC50 in assay [1] (setting [3]) turned out to be 278 nM; in assay [2] (setting [4]) it was 546 nM.

Turning to `COc1cc(-c2[nH]c3ccc(C4CCN(C5CCN(C)CC5)CC4)cc3c2C)ccn1` [Example 838, 2-(2-methoxypyridin-4-yl)-3-methyl-5-(1′-methyl-[1,4′-bipiperidin]-4-yl)-1H-indole], the IC50 came out at 581 nM in assay [1] (setting [5]) and 613 nM in assay [2] (setting [6]). As for `Cc1cc(-c2[nH]c3ccc(C4CCN(C(=O)c5ccncc5)CC4)cc3c2C(C)C)cc(C)n1` [Example 113], the IC50 in assay [2] (setting [4]) worked out at 15700 nM. For the compound `CNCCN1CCC(c2ccc3[nH]c(-c4ccnc(C(F)(F)F)c4)c(C)c3c2)CC1` [Example 747, N-methyl-2-(4-(3-methyl-2-(2-(trifluoromethyl)pyridin-4-yl)-1H-indol-5-yl)piperidin-1-yl)ethan-1-amine], the values for the IC50 in assay [1] (setting [3]) and in assay [2] (setting [4]) were 410 nM and 525 nM, respectively. Regarding `CCc1c(-c2ccnc(OC(F)F)c2)[nH]c2ccc(C3CCN(C4CCN(CC(C)C)CC4)CC3)cc12` [Example 775, 2-(2-(difluoromethoxy)pyridin-4-yl)-3-ethyl-5-(1′-isobutyl-[1,4′-bipiperidin]-4-yl)-1H-indole], the IC50 in assay [1] (setting [3]) was found to be 5660 nM; in assay [2] (setting [4]), 379 nM. For `CCc1c(-c2ccnc(OC)c2)[nH]c2ccc(C3CCN(C4CCNCC4)CC3)cc12` [Example 787, 5-([1,4′-bipiperidin]-4-yl)-3-ethyl-2-(2-methoxypyridin-4-yl)-1H-indole], in that order: 459 nM and 480 nM. For `CCNc1cc(-c2[nH]c3ccc(C4CCN(C5CCN(CC(C)C)CC5)CC4)cc3c2CC)ccn1` [Example 772, N-ethyl-4-(3-ethyl-5-(1′-isobutyl-[1,4′-bipiperidin]-4-yl)-1H-indol-2-yl)pyridin-2-amine], in that order: 9850 nM and 205 nM. For `Cc1cc(-c2[nH]c3cc(F)c(C4CCNCC4)cc3c2C(C)C)ccn1` [Example 73, 6-fluoro-3-isopropyl-2-(2-methylpyridin-4-yl)-5-(piperidin-4-yl)-1H-indole], in that order: 4.4 nM and 4720 nM.

Take `CCN1CCC(N2CCC(c3ccc4[nH]c(-c5ccncc5)c(C)c4c3)CC2)CC1` [Example 841, 5-(1′-ethyl-[1,4′-bipiperidin]-4-yl)-3-methyl-2-(pyridin-4-yl)-1H-indole]: the IC50 in assay [1] (setting [5]) was 492 nM; in assay [2] (setting [6]), 87 nM.

On to `CCc1c(-c2ccncc2)[nH]c2ccc(C3CCN(C4CCN(C)CC4)CC3)cc12` [Example 806, 3-ethyl-5-(1′-methyl-[1,4′-bipiperidin]-4-yl)-2-(pyridin-4-yl)-1H-indole], for which the IC50 amounted to 1210 nM in assay [1] (setting [3]) and 365 nM in assay [2] (setting [4]). In the case of `CCc1c(-c2ccnc(C)c2)[nH]c2ccc(C3CCNCC3)cc12` [Example 63, 3-ethyl-2-(2-methylpyridin-4-yl)-5-(piperidin-4-yl)-1H-indole], the IC50 in assay [1] (setting [3]) came out at 27.7 nM; in assay [2] (setting [4]), 329 nM. For `CC(C)c1c(-c2ccnc(C3CC3)c2)[nH]c2ccc(C3CCNCC3)cc12` [Example 483, 2-(2-cyclopropylpyridin-4-yl)-3-isopropyl-5-(piperidin-4-yl)-1H-indole], in that order: 46.2 nM and 1440 nM.

Take `CCc1cc(-c2[nH]c3ccc(C4CCN(CCNC)CC4)cc3c2C)ccn1` [Example 748, 2-(4-(2-(2-ethylpyridin-4-yl)-3-methyl-1H-indol-5-yl)piperidin-1-yl)-N-methylethan-1-amine]: the IC50 came to 495 nM in assay [1] (setting [3]) and 95 nM in assay [2] (setting [4]). `CCc1cc(-c2[nH]c3ccc(C4CCNCC4)cc3c2C(C)C)cc(C)n1` [Example 479, 2-(2-ethyl-6-methylpyridin-4-yl)-3-isopropyl-5-(piperidin-4-yl)-1H-indole]: the values for the IC50 in assay [1] (setting [3]) and in assay [2] (setting [4]) were 98.4 nM and 3400 nM, respectively. For `CC(C)c1c(-c2ccncc2)[nH]c2ccc(C3CCNCC3)cc12` [Example 38, 3-isopropyl-5-(piperidin-4-yl)-2-(pyridin-4-yl)-1H-indole], in that order: 38.4 nM and 2150 nM. On to `CCc1c(-c2ccncc2)[nH]c2ccc(C3CCN(CCNC)CC3)cc12` [Example 808, 2-(4-(3-ethyl-2-(pyridin-4-yl)-1H-indol-5-yl)piperidin-1-yl)-N-methylethan-1-amine], for which the IC50 in assay [1] (setting [5]) is 679 nM; in assay [2] (setting [6]) it was 610 nM.

Consider `CCN1CCC(N2CCC(c3ccc4[nH]c(-c5ccnc(OC)c5)c(C)c4c3)CC2)CC1` [Example 839, 5-(1′-ethyl-[1,4′-bipiperidin]-4-yl)-2-(2-methoxypyridin-4-yl)-3-methyl-1H-indole], for which the half-inhibitory concentration (IC50) in assay [1] (setting [5]) was 689 nM; in assay [2] (setting [6]), 4440 nM.

Consider `CCc1c(-c2ccncc2)[nH]c2ccc(C3CCN(Cc4cccn4C)CC3)cc12` [Example 805, 3-ethyl-5-(1-((1-methyl-1H-pyrrol-2-yl)methyl)piperidin-4-yl)-2-(pyridin-4-yl)-1H-indole], for which the IC50 in assay [1] (setting [3]) was 610 nM; in assay [2] (setting [4]), 1210 nM. With `Cc1cc(-c2[nH]c3ccc(C4CCNCC4)c(F)c3c2C(C)C)cc(C)n1` [Example 77, 2-(2,6-dimethylpyridin-4-yl)-4-fluoro-3-isopropyl-5-(piperidin-4-yl)-1H-indole], the IC50 stood at 0.5 nM in assay [1] (setting [3]) and 344 nM in assay [2] (setting [4]). For the compound `Cc1cc(-c2[nH]c3ccc(C4CCNCC4)cc3c2C(C)C)cc(C2CC2)n1` [Example 478, 2-(2-cyclopropyl-6-methylpyridin-4-yl)-3-isopropyl-5-(piperidin-4-yl)-1H-indole], the IC50 was 10.2 nM in assay [1] (setting [3]) and 1330 nM in assay [2] (setting [4]). As for `CCc1c(-c2ccncc2)[nH]c2ccc(C3CCN(C4CCN(CC)CC4)CC3)cc12` [Example 809, 3-ethyl-5-(1′-ethyl-[1,4′-bipiperidin]-4-yl)-2-(pyridin-4-yl)-1H-indole], the IC50 in assay [1] (setting [5]) was determined as 884 nM; in assay [2] (setting [6]), 306 nM. Take `CNCCN1CCC(c2ccc3[nH]c(-c4ccnc(OC)c4)c(C(C)C)c3c2)CC1` [Example 783, 2-(4-(3-isopropyl-2-(2-methoxypyridin-4-yl)-1H-indol-5-yl)piperidin-1-yl)-N-methylethan-1-amine]: the IC50 worked out at 55.1 nM in assay [1] (setting [3]) and 1010 nM in assay [2] (setting [4]).

The compound `CCc1c(-c2ccnc(C)c2)[nH]c2cc(F)c(C3CCNCC3)c(F)c12` [Example 83, 3-ethyl-4,6-difluoro-2-(2-methylpyridin-4-yl)-5-(piperidin-4-yl)-1H-indole] displayed an IC50 in assay [1] (setting [3]) of 11 nM. Still for that read-out and setting: the value for `CCc1c(-c2ccnc(C)c2)[nH]c2ccc(C3CCNCC3)c(C)c12` [Example 82, 3-ethyl-4-methyl-2-(2-methylpyridin-4-yl)-5-(piperidin-4-yl)-1H-indole] was 7.3 nM.
